Measured values reported in PubChem BioAssay (NCI).
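Cells were grown in 96-well plates and exposed to each compound for 48 hours at five concentrations; endpoints were interpolated linearly between bracketing concentrations, or set to the highest concentration if not reached. GI50 marks 50% less growth. Definition used: TGI = concentration required for complete inhibition of growth.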

What was measured:
Test in all cases: growth of human tumour cells (NCI), 48 h
[1] = tested on: UACC-62 melanoma
[2] = tested on: BT-549 breast
[3] = tested on: HL-60(TB) leukemia
[4] = tested on: SK-MEL-28 melanoma
[5] = tested on: NCI-H460 lung
[6] = tested on: A549 NSCLC
[7] = tested on: OVCAR-8 ovarian
[8] = tested on: HT29 colon
[9] = tested on: SK-OV-3 ovarian
[10] = tested on: OVCAR-3 ovarian
[11] = tested on: PC-3 prostate

| SMILES | TGI [1] | TGI [2] | TGI [3] | TGI [4] | TGI [5] | TGI [6] | TGI [7] | TGI [8] | TGI [9] | TGI [10] | TGI [11] | GI50 [2] | GI50 [3] | GI50 [4] | GI50 [5] | GI50 [6] | GI50 [7] | GI50 [8] | GI50 [9] | GI50 [10] |
| --- | --- | --- | --- | --- | --- | --- | --- | --- | --- | --- | --- | --- | --- | --- | --- | --- | --- | --- | --- | --- |
| COc1ccc2c3c1OC1C(OC)(OC)CC4(C=C2)CN(C)CCC314 (configuration not stated) | > 100 µM | > 100 µM | > 100 µM | > 100 µM | > 100 µM | > 100 µM | > 100 µM | > 100 µM | > 100 µM | > 100 µM | – | – | – | – | – | – | – | – | – | – |
| CN1NC(c2ccccc2)=C(C#N)C(=O)CC1c1ccc(Br)cc1 (configuration not stated) | – | – | 83 µM | > 100 µM | > 100 µM | > 100 µM | – | 75.6 µM | > 100 µM | – | – | – | – | – | – | – | – | – | – | – |
| O=P1(Cc2ccccc2)c2ccccc2-c2ccccc21 | 13.7 µM | 21.3 µM | – | 24.6 µM | 48.3 µM | > 94.6 µM | 36.7 µM | 27.1 µM | > 100 µM | > 55.4 µM | > 100 µM | – | – | – | – | – | – | – | – | – |
| C=CCN(CCN(CC=C)S(=O)(=O)c1ccc(C)cc1)S(=O)(=O)c1ccc(C)cc1 | – | – | – | > 100 µM | > 100 µM | > 100 µM | > 100 µM | > 100 µM | – | > 100 µM | > 100 µM | – | – | – | – | – | – | – | – | – |
| CC[n+]1c(/C=C/c2ccc(N(CCCl)CCCl)cc2)ccc2cc(I)ccc21 | 1.68 µM | – | 0.675 µM | – | 10.1 µM | 13.8 µM | – | 8.19 µM | 6.42 µM | 1.12 µM | – | – | – | – | – | – | – | – | – | – |
| CCOC1CCN(C(=O)c2ccccc2)O1 (configuration not stated) | – | > 10 µM | > 10 µM | > 10 µM | > 10 µM | > 10 µM | > 10 µM | > 10 µM | > 10 µM | > 10 µM | > 10 µM | – | – | – | – | – | – | – | – | – |
| Cc1ccc(/S(Cc2ccccc2)=N\S(=O)(=O)c2ccc(C)cc2)cc1 (configuration not stated) | – | > 100 µM | > 100 µM | > 100 µM | > 100 µM | > 100 µM | > 100 µM | > 100 µM | – | > 100 µM | > 100 µM | – | – | – | – | – | – | – | – | – |
| OC12c3ccccc3C1CCCCCC21OCCCO1 (configuration not stated) | > 100 µM | – | > 100 µM | > 100 µM | > 100 µM | > 100 µM | > 100 µM | > 100 µM | > 100 µM | > 100 µM | – | – | – | – | – | – | – | – | – | – |
| C=CCn1c(=N)/c(=C(\N)O)s/c1=C1/SC(=S)N(c2ccc(C)cc2)C1=O | > 100 µM | – | > 100 µM | > 100 µM | > 100 µM | > 100 µM | > 100 µM | > 100 µM | > 100 µM | > 100 µM | – | – | – | – | – | – | – | – | – | – |
| COc1ccccc1C1C(C#N)=C(N)Oc2cc(O)ccc21 (configuration not stated) | – | 80.4 µM | > 100 µM | 86.1 µM | 58.8 µM | > 100 µM | > 100 µM | 45.1 µM | 44.6 µM | 51.4 µM | – | 24 µM | 18.8 µM | 25 µM | 20 µM | 26.8 µM | 35.2 µM | 16 µM | 16.8 µM | 13 µM |
| CC(=O)NC1C(OCc2ccccc2)OC(CO)C(O)C1OCC(=O)N[C@@H](C)C(=O)N[C@H](CCC(=O)NCCNc1ccc([N+](=O)[O-])c2[nH]c3ccccc3c(=O)c12)C(N)=O (some centres not stated) | 46.6 µM | 46 µM | > 100 µM | > 100 µM | 30.7 µM | – | 61.2 µM | 85.8 µM | > 100 µM | > 100 µM | – | – | – | – | – | – | – | – | – | – |
| CCOC(=O)/C=C(/C(=O)OCC)n1ccc(=O)n(Cc2cnnn2CCCCOC(C)=O)c1=O | > 100 µM | > 100 µM | – | > 100 µM | > 100 µM | > 100 µM | > 100 µM | > 100 µM | > 100 µM | > 100 µM | > 100 µM | – | – | – | – | – | – | – | – | – |
| C[C@H]1O[C@@H](C(C)(C)C)OC(=O)[C@@H]1C(OC(=O)c1ccccc1)c1cccc2ccccc12 (some centres not stated) | > 100 µM | > 100 µM | – | > 100 µM | > 100 µM | > 100 µM | > 100 µM | > 100 µM | > 100 µM | > 100 µM | > 100 µM | – | – | – | – | – | – | – | – | – |
| Cc1cc(N(CCC#N)CCC#N)ccc1/C(N=Nc1ccc([N+](=O)[O-])cc1)=N\NC(=O)c1ccccc1 | > 100 µM | > 100 µM | > 100 µM | – | > 100 µM | > 100 µM | > 100 µM | 71.4 µM | > 100 µM | > 100 µM | > 100 µM | – | – | – | – | – | – | – | – | – |
| CCOC(=O)c1nc2cc(C(F)(F)F)ccc2nc1Oc1ccc(F)cc1 | > 100 µM | > 100 µM | > 100 µM | > 100 µM | > 100 µM | > 100 µM | > 100 µM | – | – | > 100 µM | > 100 µM | – | – | – | – | – | – | – | – | – |
| O=C(c1ccco1)N(C(=S)N1CCN(c2ccccn2)CC1)c1ccccc1 | > 100 µM | – | > 100 µM | > 100 µM | > 100 µM | > 100 µM | > 100 µM | > 100 µM | > 100 µM | > 100 µM | – | – | – | – | – | – | – | – | – | – |
| O=C(O)c1ccc(Nc2nc3nn(Cc4ccccc4)cc3c(=O)s2)cc1 | – | – | > 100 µM | > 100 µM | > 100 µM | > 100 µM | > 100 µM | – | > 100 µM | > 100 µM | – | – | – | – | – | – | – | – | – | – |
| CCCCCCCCCC(=O)NC(Cc1ccc(O)cc1)C(=O)NCCCNCCCCNCCCNC(=O)[C@@H](N)CCCN=C(N)N (some centres not stated) | – | – | 48.1 µM | 43.8 µM | > 100 µM | > 100 µM | > 100 µM | > 100 µM | > 100 µM | > 100 µM | – | – | – | – | – | – | – | – | – | – |
| CCOC(=O)C1(C(=O)OCC)C=C(c2ccccc2)N(C2OC(COC(C)=O)C(OC(C)=O)C(OC(C)=O)C2OC(C)=O)C1=S (configuration not stated) | > 100 µM | > 100 µM | 81.5 µM | > 100 µM | > 100 µM | > 100 µM | > 100 µM | > 100 µM | > 100 µM | > 100 µM | – | – | – | – | – | – | – | – | – | – |
| C/C(O)=C(\C=NC(=S)c1ccncc1)C(=O)Nc1ccccc1C | > 100 µM | > 100 µM | > 100 µM | > 100 µM | > 100 µM | > 100 µM | > 100 µM | > 100 µM | > 100 µM | > 100 µM | – | – | – | – | – | – | – | – | – | – |
| O=c1[nH]c(=O)n([C@@H]2O[C@H](CO)[C@@H](O)[C@@H]2F)cc1I | > 100 µM | > 100 µM | > 100 µM | > 100 µM | > 100 µM | > 100 µM | > 100 µM | > 100 µM | > 100 µM | > 100 µM | – | – | – | – | – | – | – | – | – | – |
